Target: T1, human CRHR2-alpha (Homo sapiens, UniProt Q13324)
T1 sequence (Q13324 1-411): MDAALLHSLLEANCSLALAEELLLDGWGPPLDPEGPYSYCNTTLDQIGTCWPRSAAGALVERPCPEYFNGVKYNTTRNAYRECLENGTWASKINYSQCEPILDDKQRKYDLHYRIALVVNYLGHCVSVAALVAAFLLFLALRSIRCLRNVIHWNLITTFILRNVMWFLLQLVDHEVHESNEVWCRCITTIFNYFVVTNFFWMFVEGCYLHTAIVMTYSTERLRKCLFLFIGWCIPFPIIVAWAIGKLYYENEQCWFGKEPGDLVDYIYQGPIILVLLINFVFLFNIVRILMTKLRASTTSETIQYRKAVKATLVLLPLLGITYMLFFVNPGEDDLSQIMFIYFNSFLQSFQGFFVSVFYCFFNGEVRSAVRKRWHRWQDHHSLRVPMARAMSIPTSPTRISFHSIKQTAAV
Assay: cAMP functional assay for human CRHR2 (LANCE Ultra cAMP, TR-FRET)
Assay type: cell-based
Conditions: CHO-K1 cells expressing human CRHR2-alpha, agonist human urocortin2 at EC80, cAMP; read-out: IC50 against CRHR2
How it was run: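 IC50 values derive from percent inhibition of EC80 agonist-stimulated cAMP in CHO-K1 transfectants, with 0.5 mM IBMX present; the CRHR2 line was stimulated by human urocortin2 and the CRHR1 line by CRF.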

IC50 | SMILES
< 300 nM | Cc1ncc(Cl)cc1C(=O)N[C@H]1CC[C@H](Cn2c(=O)n(-c3cccc4c3cnn4C)c3ccccc32)CC1 [Example 347, 5-chloro-2-methyl-N-((1r,4r)-4-((3-(1-methyl-1H-indazol-4-yl)-2-oxo-2,3-dihydro-1H-benzo[d]imidazol-1-yl)methyl)cyclohexyl)nicotinamide]
< 300 nM | Cc1ncc(Cl)cc1C(=O)N[C@H]1CC[C@H](Cn2c(=O)n(-c3ccc4[nH]nc(-c5ccccc5)c4c3)c3ccccc32)CC1 [Example 348, 5-chloro-2-methyl-N-((1r,4r)-4-((2-oxo-3-(3-phenyl-1H-indazol-5-yl)-2,3-dihydro-1H-benzo[d]imidazol-1-yl)methyl)cyclohexyl)nicotinamide]
< 300 nM | CNC(=O)c1ccc(-n2c(=O)n(C[C@H]3CC[C@H](NC(=O)c4cc(Cl)cnc4CC(F)F)CC3)c3ccccc32)cn1 [Example 349, 5-(3-(((1r,4r)-4-(5-chloro-2-(2,2-difluoroethyl)nicotina-mido)cyclohexyl)methyl)-2-oxo-2,3-dihydro-1H-benzo[d]imidazol-1-yl)-N-methyl-picolinamide]
< 300 nM | Cc1ncc(Cl)cc1C(=O)N[C@H]1CC[C@H](Cn2c(=O)n(-c3cccc4nccn34)c3ccccc32)CC1 [Example 350, 5-chloro-N-((1r,4r)-4-((3-(imidazo[1,2-a]pyridin-5-yl)-2-oxo-2,3-dihydro-1H-benzo [d]imidazol-1-yl)methyl)cyclohexyl)-2-methylnico-tinamide]
< 300 nM | O=C(N[C@H]1CC[C@H](Cn2c(=O)n(-c3ccc4ncccc4c3)c3ccccc32)CC1)c1cc(Cl)cnc1C(F)(F)F [Example 351, 5-chloro-N-((1r,4r)-4-((2-oxo-3-(quinolin-6-yl)-2,3-dihydro-1H-benzo[d]imidazol-1-yl)methyl)cyclo-hexyl)-2-(trifluoromethyl) nicotinamide]
< 300 nM | O=C(N[C@H]1CC[C@H](Cn2c(=O)n(-c3cnc4ccccc4c3)c3ccccc32)CC1)c1cc(Cl)cnc1C(F)(F)F [Example 352, 5-chloro-N-((1r,4r)-4-((2-oxo-3-(quinolin-3-yl)-2,3-dihydro-1H-benzo[d]imidazol-1-yl)methyl)cyclo-hexyl)-2-(trifluoromethyl) nicotinamide]
< 300 nM | O=C(N[C@H]1CC[C@H](Cn2c(=O)n(-c3cccc4cccnc34)c3ccccc32)CC1)c1cc(Cl)cnc1C(F)(F)F [Example 353, 5-chloro-N-((1r,4r)-4-((2-oxo-3-(quinolin-8-yl)-2,3-dihydro-1H-benzo[d]imidazol-1-yl)methyl)cyclo-hexyl)-2-(trifluoromethyl) nicotinamide]
< 300 nM | O=C(N[C@H]1CC[C@H](Cn2c(=O)n(-c3cncc4ccccc34)c3ccccc32)CC1)c1cc(Cl)cnc1C(F)(F)F [Example 354, 5-chloro-N-((1r,4r)-4-((3-(isoquinolin-4-yl)-2-oxo-2,3-dihydro-1H-benzo[d]imidazol-1-yl)methyl)cyclo-hexyl)-2-(trifluoromethyl) nicotinamide]
< 300 nM | CCc1nc2ncc(-n3c(=O)n(C[C@H]4CC[C@H](NC(=O)c5cc(Cl)cnc5C)CC4)c4ccccc43)cc2o1 [Example 355, 5-chloro-N-((1r,4r)-4-((3-(2-ethyloxazolo[4,5-b]pyridin-6-yl)-2-oxo-2,3-dihydro-1H-benzo[d]imidazol-1-yl)methyl)cyclohexyl)-2-methylnicotinamide]
< 300 nM | Cc1nc2ncc(-n3c(=O)n(C[C@H]4CC[C@H](NC(=O)c5cc(Cl)cnc5C)CC4)c4ccccc43)cc2o1 [Example 356, 5-chloro-2-methyl-N-((1r,4r)-4-((3-(2-methyloxazolo[4,5-b]pyridin-6-yl)-2-oxo-2,3-dihydro-1H-benzo[d]imidazol-1-yl)methyl)cyclohexyl)nicotinamide]
< 300 nM | Cc1cc(OCCO)ncc1-n1c(=O)n(C[C@H]2CC[C@H](NC(=O)c3cc(Cl)cnc3C(F)(F)F)CC2)c2ccccc21 [Example 357, 5-chloro-N-((1r,4r)-4-((3-(6-(2-hydroxyethoxy)-4-methylpyridin-3-yl)-2-oxo-2,3-dihydro-1H-benzo[d]imidazol-1-yl)methyl)cyclohexyl)-2-(trifluoromethyl)nicotinamide]
< 300 nM | Cc1ncc(Cl)cc1C(=O)N[C@H]1CC[C@H](Cn2c(=O)n(-c3ccc4ncccc4c3)c3cccnc32)CC1 [Example 358, 5-chloro-2-methyl-N-((1r,4r)-4-((2-oxo-1-(quinolin-6-yl)-1H-imidazo[4,5-b]pyridin-3(2H)-yl)methyl)cyclohexyl) nicotinamide]
< 300 nM | Cc1ncc(Cl)cc1C(=O)N[C@H]1CC[C@H](Cn2c(=O)n(-c3cnc4ccccc4c3)c3cccnc32)CC1 [Example 359, 5-chloro-2-methyl-N-((1r,4r)-4-((2-oxo-1-(quinolin-3-yl)-1H-imidazo[4,5-b]pyridin-3(2H)-yl)methyl)cyclohexyl) nicotinamide]
< 300 nM | O=C(N[C@H]1CC[C@H](Cn2c(=O)n(-c3ccc4ncccc4c3)c3cccnc32)CC1)c1cc(Cl)cnc1C(F)(F)F [Example 360, 5-chloro-N-((1r,4r)-4-((2-oxo-1-(quinolin-6-yl)-1H-imidazo [4,5-b]pyridin-3(2H)-yl)methyl)cyclohexyl)-2-(trifluoromethyl) nicotinamide]
< 300 nM | O=C(N[C@H]1CC[C@H](Cn2c(=O)n(-c3ccc4ncccc4c3)c3cccnc32)CC1)c1cc(Cl)cnc1C(F)F [Example 361, 5-chloro-2-(difluoromethyl)-N-((1r,4r)-4-((2-oxo-1-(quinolin-6-yl)-1H-imidazo[4,5-b]pyridin-3(2H)-yl)methyl)cyclohexyl) nicotinamide]
< 300 nM | O=C(N[C@H]1CC[C@H](Cn2c(=O)n(-c3ccc4ncccc4c3)c3ncccc32)CC1)c1cc(Cl)cnc1C(F)F [Example 362, 5-chloro-2-(difluoromethyl)-N-((1r,4r)-4-((2-oxo-3-(quinolin-6-yl)-2,3-dihydro-1H-imidazo[4,5-b]pyridin-1-yl)methyl)cyclohexyl)nicotinamide]
< 300 nM | CNC(=O)c1cc(C)c(-n2c(=O)n(C[C@H]3CC[C@H](NC(=O)c4cc(Cl)cnc4C(F)F)CC3)c3ccccc32)cn1 [Example 363, 5-(3-(((1r,4r)-4-(5-chloro-2-(difluoromethyl)nicotinamido)cyclohexyl)methyl)-2-oxo-2,3-dihydro-1H-benzo[d]imidazol-1-yl)-N,4-dimethylpicolinamide]
< 300 nM | Cc1nccc(-n2c(=O)n(C[C@H]3CC[C@H](NC(=O)c4cc(Cl)cnc4C(F)F)CC3)c3ccccc32)c1C [Example 364, 5-chloro-2-(difluoromethyl)-N-((1r,4r)-4-((3-(2,3-dimethyl-pyridin-4-yl)-2-oxo-2,3-dihydro-1H-benzo[d]imidazol-1-yl)methyl)cyclohexyl)nicotinamide]
< 300 nM | O=C(N[C@H]1CC[C@H](Cn2c(=O)n(-c3ccc(OCCO)nc3)c3ccccc32)CC1)c1cc(Cl)cnc1C(F)F [Example 365, 5-chloro-2-(difluoromethyl)-N-((1r,4r)-4-((3-(6-(2-hydroxyethoxy)pyridin-3-yl)-2-oxo-2,3-dihydro-1H-benzo[d]imidazol-1-yl)methyl)cyclohexyl)nicotinamide]
< 300 nM | O=C(N[C@H]1CC[C@H](Cn2c(=O)n(-c3ccccc3Cl)c3ncccc32)CC1)c1cc(Cl)cnc1C(F)F [Example 366, 5-chloro-N-((1r,4r)-4-((3-(2-chlorophenyl)-2-oxo-2,3-dihydro-1H-imidazo[4,5-b]pyridin-1-yl)methyl)cyclo-hexyl)-2-(difluoromethyl) nicotinamide]
< 300 nM | O=C(N[C@H]1CC[C@H](Cn2c(=O)n(-c3ccccc3Cl)c3ccncc32)CC1)c1cc(Cl)cnc1C(F)F [Example 367, 5-chloro-N-((1r,4r)-4-((1-(2-chlorophenyl)-2-oxo-1H-imidazo[4,5-c]pyridin-3(2H)-yl)methyl)cyclohexyl)-2-(difluoromethyl)nicotinamide]
< 300 nM | N#Cc1ncccc1-n1c(=O)n(C[C@H]2CC[C@H](NC(=O)c3cc(Cl)cnc3C(F)F)CC2)c2ccccc21 [Example 368, 5-chloro-N-((1r,4r)-4-((3-(2-cyanopyridin-3-yl)-2-oxo-2,3-dihydro-1H-benzo[d]imidazol-1-yl)methyl)cyclo-hexyl)-2-(difluoromethyl) nicotinamide]
< 300 nM | N#Cc1nccnc1-n1c(=O)n(C[C@H]2CC[C@H](NC(=O)c3cc(Cl)cnc3C(F)F)CC2)c2ccccc21 [Example 369, 5-chloro-N-((1r,4r)-4-((3-(3-cyanopyrazin-2-yl)-2-oxo-2,3-dihydro-1H-benzo[d]imidazol-1-yl)methyl)cyclohexyl)-2-(difluoromethyl)nicotinamide]
< 300 nM | Cc1ncc(Cl)cc1C(=O)N[C@H]1CC[C@H](Cn2c(=O)n(-c3ccc4cnccc4c3)c3ccccc32)CC1 [Example 371, 5-chloro-N-((1r,4r)-4-((3-(isoquinolin-6-yl)-2-oxo-2,3-dihydro-1H-benzo[d]imidazol-1-yl)methyl)cyclo-hexyl)-2-methylnicotinamide]

SMILES | IC50
Cc1ncc(Cl)cc1C(=O)N[C@H]1CC[C@H](Cn2c(=O)n(-c3ccnc4ccccc34)c3ccccc32)CC1 [Example 370, 5-chloro-2-methyl-N-((1r,4r)-4-((2-oxo-3-(quinolin-4-yl)-2,3-dihydro-1H-benzo[d]imi-dazol-1-yl)methyl)cyclohexyl) nicotinamide] | < 300 nM

From patent US11802120B2, “Fused cyclic urea derivatives as CRHR2 antagonist” (RaQualia Pharma Inc., priority 2018, dated 2023)
